Test results reported in paper PMC5104186 (Cell reports, 2016).

How the values were obtained:
α5β1γ2 GABA-A receptor = conditions: agonist; +50 mV; nH 1.8
human GAD67 (hGAD67) = human GAD67 (hGAD67) (Homo sapiens, UniProt Q99259); experiment: biochemical
α1β1γ2 GABA-A receptor = conditions: agonist; nH 1.3

human GAD67 (hGAD67), sequence (Q99259 whole entry): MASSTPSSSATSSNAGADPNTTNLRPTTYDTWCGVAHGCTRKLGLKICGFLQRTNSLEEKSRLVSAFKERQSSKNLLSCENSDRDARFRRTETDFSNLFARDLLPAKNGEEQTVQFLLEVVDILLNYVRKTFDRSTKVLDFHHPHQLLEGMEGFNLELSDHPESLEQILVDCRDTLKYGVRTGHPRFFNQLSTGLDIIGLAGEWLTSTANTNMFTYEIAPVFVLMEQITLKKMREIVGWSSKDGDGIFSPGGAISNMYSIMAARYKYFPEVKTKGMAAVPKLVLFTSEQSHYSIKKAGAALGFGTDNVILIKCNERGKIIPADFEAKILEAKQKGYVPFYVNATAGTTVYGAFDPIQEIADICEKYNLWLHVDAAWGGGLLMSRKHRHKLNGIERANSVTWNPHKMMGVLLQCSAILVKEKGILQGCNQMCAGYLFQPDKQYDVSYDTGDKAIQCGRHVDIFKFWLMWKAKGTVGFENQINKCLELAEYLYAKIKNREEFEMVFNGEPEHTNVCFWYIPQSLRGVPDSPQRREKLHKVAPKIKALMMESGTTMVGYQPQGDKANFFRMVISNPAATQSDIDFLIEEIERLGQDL

Question: How did the EC50 (α5β1γ2 GABA-A receptor) turn out when `O=C(O)[C@@H]1CCCN1` [L-proline] was run?
Answer: 5.4 mM

Question: What about the Ki (human GAD67 (hGAD67)) of the same compound?
Answer: 7.8 mM

Question: And the EC50 (α1β1γ2 GABA-A receptor)?
Answer: 8.3 mM
